Data reported in patent US6787149B1 (El Khoury and Stein Ltd., priority 2000, dated 2004).

Experiments:
[1] = test system: intraarticular opioid receptors; experiment: Intraarticular injection after arthroscopic surgery of the knee; format: in vivo, human; details: injected in the knee after arthroscopic surgery
[2] = test system: patients who had acute shingles; experiment: Analgesia for shingles, morphine spray; format: in vivo, human
From the text: Other patients who were helped were those who had acute shingles which would produce excruciating pain on the chest.

[3] = test system: children undergoing tonsillectomy; experiment: Analgesia for postsurgical pain after tonsillectomy, morphine spray on tonsil beds; format: in vivo, human; details: spray in saline on the tonsil beds after surgery; able to swallow and eat ice cream same day
From the text: The morphine spray in saline was used on the tonsil beds after surgery in children undergoing tonsillectomy.

[4] = test system: patients who had burns from radiation therapy
[5] = test system: patients who had undergone failed back operations; details: 1-3 mg on the back, ultrasound, massage, heat, Aquaphor vehicle; cited from earlier work
[6] = after two or three days of using the spray

SMILES	Duration of relief after surgery [1]	Healing [2, 6]	Post-herpetic neuralgia [2, 6]	Pain of acute shingles ([2]; spray, typically three times a day)	Pain after surgery [3]	Relief of pain, patients with pain on the tongue or in the mouth due to radiation burns ([4]; compared with skin radiation burn patients)	Time able to sit to do exercises after topical application ([4]; one patient with severe burns on the buttocks, could not sit before)	Relief of pain, one patient with severe burns on the buttocks (prostate cancer) ([4]; spray)	Start of relief after topical application ([4]; two or three mg diluted with saline, sprayed)	Relief of pain ([4]; two or three mg diluted with saline, sprayed over inflamed area, all patients treated)	Pain relief [5]
CCCCN1CCCCC1C(=O)Nc1c(C)cccc1C (centres unmarked) [Marcaine]	≤ 12 h										
CN1CC[C@]23c4c5ccc(O)c4O[C@H]2[C@@H](O)C=C[C@H]3[C@H]1C5.O=S(=O)(O)O [Morphine, morphine sulfate]		healed faster	without any post-herpetic neuralgia	significantly reduced	no pain after surgery	same experience	an hour and a half	excellent relief of the pain	10 to 15 min	excellent relief of pain	Some improvement in pain relief
